In patent US9073924B2, “Azaindazoles” (GlaxoSmithKline LLC, priority 2011, dated 2015):

Target: T1, EZH2 within the PRC2 complex (Homo sapiens, UniProt Q15910)
T1 construct: FLAG; made in house; host or cells: Sf9 cells
Test: EZH2 methyltransferase scintillation proximity assay (SPA), PRC2 complex
Assay type: biochemical
Details: inhibition of methyltransferase activity, 3H-SAM, HeLa mononucleosome substrate, foregoing or an analogous assay
Experimental: Compounds contained herein were evaluated for their ability to inhibit the methyltransferase activity of EZH2 within the PRC2 complex. Human PRC2 complex was prepared by co-expressing each of the 5 member proteins (FLAG-EZH2, EED, SUZ12, RbAp48, AEBP2) in Sf9 cells followed by co-purification. Enzyme activity was measured in a scintillation proximity assay (SPA) where a tritiated methyl group is transferred from 3H-SAM to a lysine residue on Histone H3 of a mononucleosome, purified from HeLa cells. Mononucleosomes were captured on SPA beads and the resulting signal is read on a ViewLux plate reader.
Part A. Compound Preparation
Prepare 10 mM stock of compounds from solid in 100% DMSO. • 2. Set up an 11-point serial dilution (1:3 dilution, top concentration 10 mM) in 100% DMSO for each test compound in a 384 well plate leaving columns 6 and 18 for DMSO controls. • 3. Dispense 100 nL of compound from the dilution plate into reaction plates (Grenier Bio-One, 384-well, Cat#784075). Part B. Reagent Preparation Prepare the following solutions: • 1. […] Read plates • 1. Read the assay plates on the Viewlux Plate Reader utilizing the 613 nm emission filter with a 300 s read time. […]
Percent inhibition was calculated relative to the DMSO control for each compound concentration and the resulting values were fit using standard IC50 fitting parameters within the ABASE data fitting software package.

T1 sequence (Q15910 whole entry): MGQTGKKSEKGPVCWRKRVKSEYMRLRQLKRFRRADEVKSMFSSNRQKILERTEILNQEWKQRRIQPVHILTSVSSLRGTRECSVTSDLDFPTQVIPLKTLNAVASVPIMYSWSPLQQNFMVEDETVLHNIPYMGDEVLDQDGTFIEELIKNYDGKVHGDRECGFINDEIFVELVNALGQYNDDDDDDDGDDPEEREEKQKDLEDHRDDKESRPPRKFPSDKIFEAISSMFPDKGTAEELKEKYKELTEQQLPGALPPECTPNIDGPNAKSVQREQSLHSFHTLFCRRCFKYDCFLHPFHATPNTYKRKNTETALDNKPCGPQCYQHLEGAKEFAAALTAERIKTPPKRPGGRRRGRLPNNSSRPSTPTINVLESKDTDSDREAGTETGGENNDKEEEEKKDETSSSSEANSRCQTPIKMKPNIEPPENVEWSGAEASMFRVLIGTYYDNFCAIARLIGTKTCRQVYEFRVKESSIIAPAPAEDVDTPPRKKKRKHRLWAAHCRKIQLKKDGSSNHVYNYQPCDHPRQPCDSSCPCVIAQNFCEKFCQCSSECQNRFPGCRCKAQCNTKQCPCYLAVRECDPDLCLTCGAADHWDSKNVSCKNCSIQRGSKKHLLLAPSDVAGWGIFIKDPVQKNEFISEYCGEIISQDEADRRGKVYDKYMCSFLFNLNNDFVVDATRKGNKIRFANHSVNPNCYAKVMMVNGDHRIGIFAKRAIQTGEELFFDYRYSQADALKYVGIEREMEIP
T1 sequence (O75530 whole entry partner): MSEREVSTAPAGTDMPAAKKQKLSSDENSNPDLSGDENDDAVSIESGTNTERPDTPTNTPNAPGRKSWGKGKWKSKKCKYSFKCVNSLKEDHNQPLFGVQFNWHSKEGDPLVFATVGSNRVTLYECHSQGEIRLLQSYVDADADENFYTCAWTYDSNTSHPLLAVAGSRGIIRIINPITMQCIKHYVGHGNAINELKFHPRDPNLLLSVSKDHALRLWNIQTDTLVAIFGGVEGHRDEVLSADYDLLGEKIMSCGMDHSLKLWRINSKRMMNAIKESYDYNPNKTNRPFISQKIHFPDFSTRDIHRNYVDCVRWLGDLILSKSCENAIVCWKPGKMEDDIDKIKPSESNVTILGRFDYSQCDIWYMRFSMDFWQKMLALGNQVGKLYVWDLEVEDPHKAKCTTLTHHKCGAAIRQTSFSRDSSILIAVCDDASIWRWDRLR
T1 sequence (Q15022 whole entry partner): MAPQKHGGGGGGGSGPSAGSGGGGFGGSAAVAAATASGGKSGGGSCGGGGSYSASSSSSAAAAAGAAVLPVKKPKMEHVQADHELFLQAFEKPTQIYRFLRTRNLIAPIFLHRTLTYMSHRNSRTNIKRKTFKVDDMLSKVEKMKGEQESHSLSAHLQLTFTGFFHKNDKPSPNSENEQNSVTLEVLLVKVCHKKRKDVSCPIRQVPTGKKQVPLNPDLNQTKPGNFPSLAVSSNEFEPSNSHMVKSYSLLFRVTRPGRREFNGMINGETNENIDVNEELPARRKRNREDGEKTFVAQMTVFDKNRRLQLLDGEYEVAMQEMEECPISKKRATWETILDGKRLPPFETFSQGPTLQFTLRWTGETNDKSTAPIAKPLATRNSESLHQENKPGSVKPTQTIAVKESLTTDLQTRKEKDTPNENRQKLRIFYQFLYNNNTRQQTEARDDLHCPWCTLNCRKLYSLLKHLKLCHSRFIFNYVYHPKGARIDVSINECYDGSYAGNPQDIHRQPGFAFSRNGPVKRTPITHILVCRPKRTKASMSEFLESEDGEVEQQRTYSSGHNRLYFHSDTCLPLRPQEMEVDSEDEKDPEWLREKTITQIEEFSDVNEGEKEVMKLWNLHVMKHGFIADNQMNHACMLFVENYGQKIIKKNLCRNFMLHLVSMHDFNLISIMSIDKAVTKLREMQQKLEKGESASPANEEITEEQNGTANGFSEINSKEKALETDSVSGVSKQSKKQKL
T1 sequence (Q09028 whole entry partner): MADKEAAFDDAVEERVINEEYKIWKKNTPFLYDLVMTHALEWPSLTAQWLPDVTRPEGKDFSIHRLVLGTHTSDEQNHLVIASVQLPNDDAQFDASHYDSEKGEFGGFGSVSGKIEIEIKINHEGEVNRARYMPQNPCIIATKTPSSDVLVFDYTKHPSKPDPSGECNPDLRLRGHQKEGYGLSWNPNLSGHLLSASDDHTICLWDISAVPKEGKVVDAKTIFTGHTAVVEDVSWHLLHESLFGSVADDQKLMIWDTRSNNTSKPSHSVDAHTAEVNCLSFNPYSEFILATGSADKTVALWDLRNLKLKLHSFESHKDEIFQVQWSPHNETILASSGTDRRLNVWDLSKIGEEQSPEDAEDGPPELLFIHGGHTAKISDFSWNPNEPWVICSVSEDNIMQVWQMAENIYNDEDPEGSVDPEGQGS
T1 sequence (Q6ZN18 whole entry partner): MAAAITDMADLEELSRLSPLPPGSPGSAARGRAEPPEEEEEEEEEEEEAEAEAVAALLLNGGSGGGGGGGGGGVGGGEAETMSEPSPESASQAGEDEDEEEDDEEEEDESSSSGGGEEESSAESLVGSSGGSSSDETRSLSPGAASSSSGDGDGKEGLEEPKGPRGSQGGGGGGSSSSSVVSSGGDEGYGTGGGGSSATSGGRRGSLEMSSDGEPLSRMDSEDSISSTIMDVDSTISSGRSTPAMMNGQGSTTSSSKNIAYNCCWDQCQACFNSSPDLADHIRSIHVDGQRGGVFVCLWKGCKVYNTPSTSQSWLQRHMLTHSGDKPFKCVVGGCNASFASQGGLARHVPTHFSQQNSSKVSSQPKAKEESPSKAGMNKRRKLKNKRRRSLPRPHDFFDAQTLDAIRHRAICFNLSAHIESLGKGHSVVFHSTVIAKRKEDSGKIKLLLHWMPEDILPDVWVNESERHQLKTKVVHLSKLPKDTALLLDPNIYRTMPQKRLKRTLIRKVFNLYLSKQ

In the case of “6-{[4-(Aminocarbonyl)phenyl]amino}-N-[(4,6-dimethyl-2-oxo-1,2-dihydro-3-pyridinyl)methyl]-1-(1-methylethyl)-1H-pyrazolo[3,4-b]pyridine-4-carboxamide [Ex 86]”, the IC50 is reported as 0.142 µM.

For “N-[(4,6-Dimethyl-2-oxo-1,2-dihydro-3-pyridinyl)methyl]-1-(1-methylethyl)-6-(2-phenylethyl)-1H-pyrazolo[3,4-b]pyridine-4-carboxamide [Ex 32]”, the IC50 was 0.856 µM.
